Test results from ChEMBL document CHEMBL5365419, “Identification of a Protein Arginine Methyltransferase 7 (PRMT7)/Protein Arginine Methyltransferase 9 (PRMT9) Inhibitor” (J Med Chem, 2023).
Blank lines part the entries; values can stand above or below the compound they belong to. Activity calls are given as the source filed them. The calls are words filed in the database; no cut-off is given here.

Assays:
[1] = biological target: T1, Protein arginine N-methyltransferase 9 (Homo sapiens) (UniProt Q6P2P2); test: Inhibition of human GST-fused PRMT9 expressed in Escherichia coli at less than 5 uM using human GST-SF3B2 (401 to 550 residues) peptide as substrate and human histone H2B as cosubstrate incubated under 37 degreeC in presence of 3H-SAM by SDS-PAGE based densitometric analysis relative to control
T1 sequence (whole entry): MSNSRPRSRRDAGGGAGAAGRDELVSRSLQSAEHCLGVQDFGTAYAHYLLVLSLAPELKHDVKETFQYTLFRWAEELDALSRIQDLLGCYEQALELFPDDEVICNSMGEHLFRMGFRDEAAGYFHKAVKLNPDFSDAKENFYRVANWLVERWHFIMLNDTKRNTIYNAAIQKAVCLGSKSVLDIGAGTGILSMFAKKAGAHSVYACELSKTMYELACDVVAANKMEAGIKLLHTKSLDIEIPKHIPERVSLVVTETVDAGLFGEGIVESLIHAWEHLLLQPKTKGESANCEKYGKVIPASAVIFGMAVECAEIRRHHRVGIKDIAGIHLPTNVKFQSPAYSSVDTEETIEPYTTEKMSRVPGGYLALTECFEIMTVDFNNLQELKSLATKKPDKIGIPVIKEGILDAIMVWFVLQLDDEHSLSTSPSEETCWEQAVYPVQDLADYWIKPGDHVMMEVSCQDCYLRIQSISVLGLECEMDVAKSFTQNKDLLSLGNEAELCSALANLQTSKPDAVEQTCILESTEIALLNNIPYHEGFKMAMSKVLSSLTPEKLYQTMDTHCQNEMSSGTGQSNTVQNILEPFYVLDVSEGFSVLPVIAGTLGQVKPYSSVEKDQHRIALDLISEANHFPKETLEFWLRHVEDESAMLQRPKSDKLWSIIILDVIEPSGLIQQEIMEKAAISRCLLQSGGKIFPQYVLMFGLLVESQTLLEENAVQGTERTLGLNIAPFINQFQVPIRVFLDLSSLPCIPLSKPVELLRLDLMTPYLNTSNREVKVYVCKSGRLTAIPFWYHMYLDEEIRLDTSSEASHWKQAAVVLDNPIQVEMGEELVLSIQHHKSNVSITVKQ

[2] = biological target: T1, Protein arginine N-methyltransferase 9 (Homo sapiens); test: Inhibition of human GST-fused PRMT9 expressed in Escherichia coli using human GST-SF3B2 (401 to 550 residues) peptide as substrate and human histone H2B as cosubstrate under 37 degreeC in presence of 3H-SAM by SDS-PAGE based densitometric analysis; settings: dose 5-100 µM
[3] = biological target: T1, Protein arginine N-methyltransferase 9 (Homo sapiens); test: (§1) Inhibition of human GST-fused PRMT9 expressed in Escherichia coli at 100 uM using human GST-SF3B2 (401 to 550 residues) peptide as substrate and human histone H2B as cosubstrate incubated under 37 degreeC in presence of 3H-SAM by SDS-PAGE based densitometric analysis relative to control
[4] = biological target: T2, Protein arginine N-methyltransferase 7 (Homo sapiens) (UniProt Q9NVM4); test: (§2) Inhibition of human GST-fused PRMT7 expressed in Escherichia coli at 100 uM using human GST-SF3B2 (401 to 550 residues) peptide as substrate and human histone H2B as cosubstrate incubated under 15 degreeC in presence of 3H-SAM by SDS-PAGE based densitometric analysis
T2 sequence (whole entry): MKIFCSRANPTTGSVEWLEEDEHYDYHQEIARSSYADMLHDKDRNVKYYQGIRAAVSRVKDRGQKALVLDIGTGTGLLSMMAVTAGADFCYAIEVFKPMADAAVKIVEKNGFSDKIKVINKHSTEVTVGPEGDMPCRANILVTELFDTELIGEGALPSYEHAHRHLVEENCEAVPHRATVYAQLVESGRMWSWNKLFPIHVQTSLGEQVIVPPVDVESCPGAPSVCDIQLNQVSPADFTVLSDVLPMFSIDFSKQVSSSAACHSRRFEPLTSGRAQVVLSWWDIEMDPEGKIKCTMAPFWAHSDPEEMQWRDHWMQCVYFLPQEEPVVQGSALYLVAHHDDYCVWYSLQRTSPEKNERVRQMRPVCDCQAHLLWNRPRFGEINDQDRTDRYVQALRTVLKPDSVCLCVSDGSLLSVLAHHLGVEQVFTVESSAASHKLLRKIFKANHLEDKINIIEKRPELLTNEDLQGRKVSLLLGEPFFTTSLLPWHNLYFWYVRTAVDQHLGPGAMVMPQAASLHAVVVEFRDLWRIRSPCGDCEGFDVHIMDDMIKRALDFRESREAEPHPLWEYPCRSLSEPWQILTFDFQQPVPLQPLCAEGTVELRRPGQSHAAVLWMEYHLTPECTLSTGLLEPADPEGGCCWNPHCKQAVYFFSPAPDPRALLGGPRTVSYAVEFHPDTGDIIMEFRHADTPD

Caenorhabditis elegans [5] = test: as §1, with “of Caenorhabditis elegans” for “of human”, “using Caenorhabditis elegans GST-SFTB2 (99” for “using human GST-SF3B2 (401”, “to 248” for “to 550”, “under 25” for “under 37”
Caenorhabditis elegans [6] = test: (§3) Inhibition of Caenorhabditis elegans GST-fused PRMT9 expressed in Escherichia coli at 25 to 50 uM using Caenorhabditis elegans GST-SFTB2 (99 to 248 residues) peptide as substrate and human histone H2B as cosubstrate incubated under 25 degreeC in presence of 3H-SAM by SDS-PAGE based densitometric analysis relative to control; settings: dose 25-50 µM
Caenorhabditis elegans [7] = test: as §2, with “of Caenorhabditis elegans” for “of human”, “using Caenorhabditis elegans GST-SFTB-2 (99” for “using human GST-SF3B2 (401”, “to 248” for “to 550”
Caenorhabditis elegans [8] = test: as §3, with “PRMT7” for “PRMT9”, “250” for “25 to 50”, “GST-SFTB-2” for “GST-SFTB2”, “15” for “25”
[9] = biological target: T1, Protein arginine N-methyltransferase 9 (Homo sapiens); test: Inhibition of PRMT9 catalysed SF3B2 R508 methylation in human MCF7 cells upto 100 uM measured after 72 hrs by immunoblotting analysis; type: cell-based
[10] = biological target: T1, Protein arginine N-methyltransferase 9 (Homo sapiens); test: Inhibition of PRMT9 catalysed SF3B2 R508 methylation in human MDA-MB-436 cells upto 100 uM measured after 72 hrs by immunoblotting analysis; type: cell-based
[11] = biological target: T1, Protein arginine N-methyltransferase 9 (Homo sapiens); test: Inhibition of human recombinant PRMT9 using biotinylated SF3B2(500 to 519 residues) as substrate and SAM as cosubstrate pre-incubated with compound for 30 mins followed by substrate addition measured after 60 mins by AlphaLISA assay; settings: time 90.0 min
[12] = Selectivity ratio of human GST-fused PRMT9 to Caenorhabditis elegans GST-fused PRMT9
[13] = biological target: T1, Protein arginine N-methyltransferase 9 (Homo sapiens); test: Inhibition of human GST-fused PRMT9 expressed in Escherichia coli at 100 uM using human GST-SF3B2 (401 to 550 residues) peptide as substrate and human histone H2B as cosubstrate incubated under 37 degreeC in presence of 3H-SAM by SDS-PAGE based densitometric analysis

inhibition [1]: 50%
inhibition [2]: Dose-Dependent Effect
inhibition [3]: 100%
inhibition [4]: Active
inhibition (Caenorhabditis elegans [5]): 100%
inhibition (Caenorhabditis elegans [6]): 50%
inhibition (Caenorhabditis elegans [7]): inactive
inhibition (Caenorhabditis elegans [8]): 50%
SMILES: COC(=O)c1cc(O)c2cc(NC(=O)NCCCCNC(=N)NC[C@H]3O[C@@H](n4cnc5c(N)ncnc54)[C@H](O)[C@@H]3O)ccc2c1

inhibition [9]: inactive
inhibition [10]: inactive
SMILES: COC(=O)c1cc(O)c2cc(NC(=O)NCCCCNC(=N)NCC[C@H]3O[C@@H](n4cnc5c(N)ncnc54)[C@H](O)[C@@H]3O)ccc2c1

inhibition [11]: inactive
SMILES: O=C(CC(=O)Nc1ccc2[nH]cc(C(=O)O)c2c1)Nc1ccc2[nH]cc(C(=O)O)c2c1

inhibition [11]: inactive
SMILES: O=C(Nc1ccc2[nH]cc(C(=O)O)c2c1)Nc1ccc2[nH]cc(C(=O)O)c2c1

inhibition [2]: Dose-Dependent Effect
inhibition [3]: 100%
inhibition [4]: Active
inhibition (Caenorhabditis elegans [5]): 100%
Selectivity ratio [12]: 5
inhibition (Caenorhabditis elegans [7]): inactive
inhibition [9]: inactive
inhibition [10]: inactive
SMILES: COC(=O)c1cc(O)c2cc(NC(=O)NCCCCCNC(=N)NC[C@H]3O[C@@H](n4cnc5c(N)ncnc54)[C@H](O)[C@@H]3O)ccc2c1

inhibition [11]: inactive
SMILES: O=C(Nc1ccc2cc(C(=O)O)cc(O)c2c1)Nc1ccc2cc(C(=O)O)cc(O)c2c1

inhibition [9]: inactive
inhibition [10]: inactive
SMILES: COC(=O)c1cc(O)c2cc(NC(=O)NCCCCCCCNC(=N)NC[C@H]3O[C@@H](n4cnc5c(N)ncnc54)[C@H](O)[C@@H]3O)ccc2c1

inhibition [11]: inactive
SMILES: COC(=O)c1cc(O)c2cc(NC(=O)Nc3ccc4cc(C(=O)OC)cc(O)c4c3)ccc2c1

inhibition [11]: inactive
SMILES: CCOC(=O)c1cc2cc(NC(=O)CNC(=O)Nc3ccc([N+](=O)[O-])cc3)ccc2[nH]1

inhibition [11]: inactive
SMILES: COC(=O)c1c[nH]c2ccc(NC(=O)CC(=O)Nc3ccc4[nH]cc(C(=O)OC)c4c3)cc12

inhibition [13]: Active
SMILES: CSC[C@H]1O[C@@H](n2cnc3c(N)ncnc32)[C@H](O)[C@@H]1O

inhibition [1]: 50%
inhibition [2]: Dose-Dependent Effect
inhibition [3]: 100%
inhibition (Caenorhabditis elegans [5]): 100%
inhibition (Caenorhabditis elegans [6]): 50%
inhibition (Caenorhabditis elegans [7]): inactive
inhibition (Caenorhabditis elegans [8]): 50%
inhibition [9]: inactive
inhibition [10]: inactive
SMILES: COC(=O)c1cc(O)c2cc(NC(=O)NCCCNC(=N)NC[C@H]3O[C@@H](n4cnc5c(N)ncnc54)[C@H](O)[C@@H]3O)ccc2c1
